Publication PMC10645073, “Interaction of gallium, indium and vanadyl diacetylcurcumin complexes with lysozyme: mechanistic aspects and evaluation of antiamyloidogenic activity” (Royal Society Open Science, 2023)

Legend:
[1] = molecular target: T1, HEWL amyloid fibrils (Gallus gallus, UniProt P00698); experiment: Thioflavin T fluorescence assay of HEWL amyloid fibrillation; assay type: biochemical, hen; conditions: HEWL 70 µM, complex 10 µM; for effect on amyloid fibrillation of HEWL (ThT fluorescence): pH 2.0, 140 min incubation
T1 construct: whose 129 amino acid residues are linked together by four disulfide bridges to form a single polypeptide chain; purchased Sigma-Aldrich L6876; host or cells: hen egg white (natural source, per the protein's name)
T1 sequence (P00698 19-147): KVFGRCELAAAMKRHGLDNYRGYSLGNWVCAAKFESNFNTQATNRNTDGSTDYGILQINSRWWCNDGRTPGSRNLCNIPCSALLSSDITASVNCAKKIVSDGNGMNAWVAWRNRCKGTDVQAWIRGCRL
Procedure: To prepare HEWL amyloid fibrils, a solution of the protein (5 ml, 70 µM) was prepared in 100 mM PBS, and the pH adjusted to 2.0 using hydrochloric acid. The solution was then incubated in a shaker incubator bath at 450 rpm and 58°C for 140 min. To investigate the effect of the diacetylcurcumin-based metal complexes on HEWL amyloid fibrillation, three separate samples, each containing HEWL (70 µM) and one of the metal complexes of diacetylcurcumin (10 µM), were prepared and incubated under the above conditions.
For ThT assay, a 17 µl volume of the incubated HEWL (70 µM) samples was added to 983 µl of ThT solution for the final HEWL and ThT concentrations of 1.2 µM and 20 µM, respectively. ThT spectra containing the incubated HEWL/metal complexes were recorded 5 min after recording the spectrum of ThT solution as control solution. All spectra were recorded using a Varian Cary Eclipse fluorescence spectrophotometer at 25°C. ThT solution was excited with a 440 nm wavelength and emission fluorescence spectra were recorded in the wavelength range of 450–600 nm.
Enhancement of ThT fluorescence intensity upon its rapid and strong binding to the cross β-sheet structure of amyloid fibrils is important evidence to confirm the amyloid fibril formation of proteins. The inhibitory activities of Ga(DAC)3, In(DAC)3 and VO(DAC)2 complexes on the amyloid fibrillation process of HEWL were explored by ThT fluorescence assay over 140 min period of incubation at pH 2.0. The kinetics of the fibrillation process in the absence and presence of the considered complexes is depicted in figure 4a.
To estimate the lag time and apparent rate constant for growth of fibrils, the following equation was employed on the ThT fluorescence data: F=Fmin+Fmax/1+e^−(t−t0/τ),
where F is the fluorescence intensity in t, Fmin and Fmax are fluorescence intensities in initial time and saturation phase, respectively, t is incubation time and t0 is required time to get 50% of maximal fluorescence intensity. The apparent rate constant, kapp, is given by 1/τ and the lag time is approximated by t0 − 2τ. […]

[2] = molecular target: T2, hen egg white lysozyme (HEWL) (Gallus gallus, UniProt P00698); experiment: Förster resonance energy transfer (FRET) binding distance, HEWL donor / metal complex acceptor
T2 construct: whose 129 amino acid residues are linked together by four disulfide bridges to form a single polypeptide chain; purchased Sigma-Aldrich L6876; host or cells: hen egg white (natural source, per the protein's name)
T2 sequence (P00698 19-147): as above
Description: Förster resonance energy transfer (FRET) is a sensitive fluorescence-based approach that acts as a spectroscopic ruler to determine the binding distances within 1–10 nm between interacting molecules. Owing to the good overlap between the emission fluorescence spectrum of HEWL, as donor molecule, and the absorption spectra of three metal complexes of diacetylcurcumin, as acceptor molecules (electronic supplementary material, figure S4), the FRET method was used to obtain distance-dependent information of the donor-acceptor pairs. According to Förster's non-radiative energy transfer theory, the value of energy transfer efficiency, E, can be measured using the following equation:3.5 E=1−F/F0=R06/R06+r^6, where R0 and r represent the critical energy transfer distance and distance between donor and acceptor, respectively. The R0 parameter, the distance for 50% energy transfer, can be also calculated by the following equation:3.6 R06=8.79 × 10^−25[K^2n^−4ϕJ(λ)],
where K^2 is the relative orientation of the donor and acceptor (equal to 2/3 for a random orientation), n denotes the average refractive index of the medium (equal to 1.33), and φ represents the fluorescence quantum yield of the donor (equal to 0.15). […] Therefore, it can be concluded that a non-radiative energy transfer process contributes to the fluorescence quenching of HEWL by the metal complexes of diacetylcurcumin. […]

Structure (SMILES) | effect on lag time and t0 of fibrillation ([1]; pH 2.0) | effect on amyloid fibrillation of HEWL (ThT fluorescence) [1] | binding distance r between donor and acceptor [2] | energy transfer value (E) [2] [%]
COc1cc(C=CC(=O)C=C([O-])C=Cc2ccc(OC(C)=O)c(OC)c2)ccc1OC(C)=O.COc1cc(C=CC(=O)C=C([O-])C=Cc2ccc(OC(C)=O)c(OC)c2)ccc1OC(C)=O.COc1cc(C=CC(=O)C=C([O-])C=Cc2ccc(OC(C)=O)c(OC)c2)ccc1OC(C)=O.[In+3] [In(DAC)3, indium diacetylcurcumin] | significant increase in the lag time and t0 | considerable delaying effect | least value of the binding distance | 18
COc1cc(/C=C/C(=O)C=C([O-])/C=C/c2ccc(OC(C)=O)c(OC)c2)ccc1OC(C)=O.COc1cc(/C=C/C(=O)C=C([O-])/C=C/c2ccc(OC(C)=O)c(OC)c2)ccc1OC(C)=O.[O]=[V+2] [VO(DAC)2, vanadyl diacetylcurcumin] | – | highest inhibitory effect | – | –
